Our source for the inhibition and IC50 values is ChEMBL document CHEMBL5137043, “trans, trans-2-C-Aryl-3,4-dihydroxypyrrolidines as potent and selective β-glucosidase inhibitors: Pharmacological chaperones for Gaucher disease” (Eur J Med Chem, 2022).

Structures are written as SMILES.

The subject of one experiment is Saccharomyces cerevisiae. The experiment can be described thus: Inhibition of yeast alpha-glucosidase assessed as reduction of p-nitrophenol release using p-nitrophenyl-glycoside as substrate at 1000 uM by spectrophotometric analysis.
In another experiment the test system is Oryza sativa. Put plainly: Inhibition of rice alpha-glucosidase assessed as reduction of p-nitrophenol release using p-nitrophenyl-glycoside as substrate at 1000 uM by spectrophotometric analysis.
In experiment [1] the target is Sucrase-isomaltase, intestinal (Rattus norvegicus, UniProt P23739). Put plainly: Inhibition of rat small intestinal sucrase assessed as reduction of p-nitrophenol release using p-nitrophenyl-glycoside as substrate by spectrophotometric analysis. Type of experiment: tissue-based, Small intestine.
The subject of another experiment is Prunus dulcis. Put plainly: Inhibition of almond beta-glucosidase assessed as reduction of p-nitrophenol release using p-nitrophenyl-glycoside as substrate at 1000 uM by spectrophotometric analysis.
The species entered for experiment [2] is Bos taurus. The experiment can be described thus: Inhibition of bovine liver beta-glucosidase assessed as reduction of p-nitrophenol release using p-nitrophenyl-glycoside as substrate at 1000 uM by spectrophotometric analysis.
Experiment [3] in a line: Inhibition of human lysosomal beta-glucosidase assessed as reduction of p-nitrophenol release using p-nitrophenyl-glycoside as substrate by spectrophotometric analysis. The experiment is classed as subcellular, Lysosome.
The target in experiment [4] is Alpha-galactosidase (Coffea arabica) (UniProt Q42656). The experiment can be described thus: Inhibition of coffee beans alpha-galactosidase assessed as reduction of p-nitrophenol release using p-nitrophenyl-glycoside as substrate at 1000 uM by spectrophotometric analysis.
A short description of experiment [5]: Inhibition of bovine liver beta-galactosidase assessed as reduction of p-nitrophenol release using p-nitrophenyl-glycoside as substrate by spectrophotometric analysis. Also noted: species or system Bos taurus.
In experiment [6] the target is T1, Alpha-mannosidase (Canavalia ensiformis) (UniProt C0HJB3).
T1 sequence (whole entry): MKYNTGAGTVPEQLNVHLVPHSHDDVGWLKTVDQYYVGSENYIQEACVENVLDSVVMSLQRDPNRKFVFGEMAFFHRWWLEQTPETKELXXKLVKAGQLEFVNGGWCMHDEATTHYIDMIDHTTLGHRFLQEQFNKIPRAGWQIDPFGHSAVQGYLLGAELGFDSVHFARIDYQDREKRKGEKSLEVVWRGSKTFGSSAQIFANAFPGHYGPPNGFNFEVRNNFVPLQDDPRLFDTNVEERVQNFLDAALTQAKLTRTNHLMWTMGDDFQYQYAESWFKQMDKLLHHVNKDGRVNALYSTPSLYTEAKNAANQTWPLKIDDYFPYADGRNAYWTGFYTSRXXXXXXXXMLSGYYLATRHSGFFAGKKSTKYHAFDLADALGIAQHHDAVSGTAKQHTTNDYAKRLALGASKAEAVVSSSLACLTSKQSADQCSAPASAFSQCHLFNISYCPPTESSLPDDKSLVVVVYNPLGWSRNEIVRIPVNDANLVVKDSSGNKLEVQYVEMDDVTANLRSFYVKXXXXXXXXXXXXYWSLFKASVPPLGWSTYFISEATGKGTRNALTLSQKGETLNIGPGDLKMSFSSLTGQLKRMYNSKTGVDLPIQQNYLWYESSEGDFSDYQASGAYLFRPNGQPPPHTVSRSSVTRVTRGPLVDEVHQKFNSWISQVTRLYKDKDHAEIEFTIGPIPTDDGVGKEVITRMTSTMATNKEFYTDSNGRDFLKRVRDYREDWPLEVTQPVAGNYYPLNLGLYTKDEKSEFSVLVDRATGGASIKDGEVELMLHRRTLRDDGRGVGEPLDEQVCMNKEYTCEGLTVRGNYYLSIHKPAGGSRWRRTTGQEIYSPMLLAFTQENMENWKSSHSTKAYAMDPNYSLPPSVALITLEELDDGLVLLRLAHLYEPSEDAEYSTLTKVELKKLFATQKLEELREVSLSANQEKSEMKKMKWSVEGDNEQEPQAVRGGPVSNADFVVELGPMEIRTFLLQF
Put plainly: Inhibition of jack bean alpha-mannosidase assessed as reduction of p-nitrophenol release using p-nitrophenyl-glycoside as substrate at 1000 uM by spectrophotometric analysis.

The next experiment has as its system Helix pomatia. The experiment can be described thus: Inhibition of snail beta-mannosidase assessed as reduction of p-nitrophenol release using p-nitrophenyl-glycoside as substrate at 1000 uM by spectrophotometric analysis.
Experiment [7] addresses T2, Tissue alpha-L-fucosidase (Bos taurus) (UniProt Q2KIM0).
T2 sequence (whole entry): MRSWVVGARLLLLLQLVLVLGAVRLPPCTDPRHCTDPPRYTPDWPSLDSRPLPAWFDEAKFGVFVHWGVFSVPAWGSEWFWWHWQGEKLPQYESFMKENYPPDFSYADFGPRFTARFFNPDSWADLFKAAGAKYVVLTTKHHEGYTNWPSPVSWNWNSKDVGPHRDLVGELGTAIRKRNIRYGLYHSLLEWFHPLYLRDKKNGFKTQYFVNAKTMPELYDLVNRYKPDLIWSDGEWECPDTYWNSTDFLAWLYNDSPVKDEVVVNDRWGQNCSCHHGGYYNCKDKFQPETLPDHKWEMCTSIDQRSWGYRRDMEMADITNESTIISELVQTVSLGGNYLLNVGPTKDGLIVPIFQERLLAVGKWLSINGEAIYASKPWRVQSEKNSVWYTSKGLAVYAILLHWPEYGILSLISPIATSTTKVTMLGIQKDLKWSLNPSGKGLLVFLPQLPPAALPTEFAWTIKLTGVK
The experiment can be described thus: Inhibition of bovine kidney alpha-L-fucosidase assessed as reduction of p-nitrophenol release using p-nitrophenyl-glycoside as substrate at 1000 uM by spectrophotometric analysis. Type of experiment: tissue-based.

For a further experiment, the species on record is Sus scrofa. The experiment can be described thus: Inhibition of porcine kidney alpha-trehalase assessed as reduction of p-nitrophenol release using p-nitrophenyl-glycoside as substrate at 1000 uM by spectrophotometric analysis. The experiment is classed as tissue-based.
A further experiment relates to Aspergillus niger. Put plainly: Inhibition of Aspergillus niger amyloglucosidase assessed as reduction of p-nitrophenol release using p-nitrophenyl-glycoside as substrate at 1000 uM by spectrophotometric analysis.
Experiment [8] in a line: Inhibition of Penicillium decumbens alpha-L-rhamnosidase assessed as reduction of p-nitrophenol release using p-nitrophenyl-glycoside as substrate by spectrophotometric analysis.
For another experiment, the system named is Escherichia coli. Put plainly: Inhibition of Escherichia coli beta-glucuronidase assessed as reduction of p-nitrophenol release using p-nitrophenyl-glycoside as substrate at 1000 uM by spectrophotometric analysis.
The species named for experiment [9] is Bos taurus. Put plainly: Inhibition of bovine liver beta-glucuronidase assessed as reduction of p-nitrophenol release using p-nitrophenyl-glycoside as substrate at 1000 uM by spectrophotometric analysis.
For experiment [10], the target named is Lysosomal alpha-glucosidase (Homo sapiens) (UniProt P10253). Put plainly: Inhibition of human lysosomal alpha-glucosidase assessed as reduction of p-nitrophenol release using p-nitrophenyl-glycoside as substrate at 1000 uM by spectrophotometric analysis. To be noted: Lysosome.

Alpha-galactosidase (Coffea arabica), sequence (Q42656 16-378 limits assumed): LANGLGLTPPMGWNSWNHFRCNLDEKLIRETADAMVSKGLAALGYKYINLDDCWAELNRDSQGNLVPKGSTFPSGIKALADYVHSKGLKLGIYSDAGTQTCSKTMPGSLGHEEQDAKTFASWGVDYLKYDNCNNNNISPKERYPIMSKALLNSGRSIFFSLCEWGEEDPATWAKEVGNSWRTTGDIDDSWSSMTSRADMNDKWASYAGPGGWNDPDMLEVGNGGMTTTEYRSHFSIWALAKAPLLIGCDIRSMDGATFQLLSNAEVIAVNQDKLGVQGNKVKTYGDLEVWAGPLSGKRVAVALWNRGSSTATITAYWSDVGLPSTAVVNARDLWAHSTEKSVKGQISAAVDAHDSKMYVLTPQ
Sucrase-isomaltase, intestinal, sequence (P23739 1-1013 limits assumed): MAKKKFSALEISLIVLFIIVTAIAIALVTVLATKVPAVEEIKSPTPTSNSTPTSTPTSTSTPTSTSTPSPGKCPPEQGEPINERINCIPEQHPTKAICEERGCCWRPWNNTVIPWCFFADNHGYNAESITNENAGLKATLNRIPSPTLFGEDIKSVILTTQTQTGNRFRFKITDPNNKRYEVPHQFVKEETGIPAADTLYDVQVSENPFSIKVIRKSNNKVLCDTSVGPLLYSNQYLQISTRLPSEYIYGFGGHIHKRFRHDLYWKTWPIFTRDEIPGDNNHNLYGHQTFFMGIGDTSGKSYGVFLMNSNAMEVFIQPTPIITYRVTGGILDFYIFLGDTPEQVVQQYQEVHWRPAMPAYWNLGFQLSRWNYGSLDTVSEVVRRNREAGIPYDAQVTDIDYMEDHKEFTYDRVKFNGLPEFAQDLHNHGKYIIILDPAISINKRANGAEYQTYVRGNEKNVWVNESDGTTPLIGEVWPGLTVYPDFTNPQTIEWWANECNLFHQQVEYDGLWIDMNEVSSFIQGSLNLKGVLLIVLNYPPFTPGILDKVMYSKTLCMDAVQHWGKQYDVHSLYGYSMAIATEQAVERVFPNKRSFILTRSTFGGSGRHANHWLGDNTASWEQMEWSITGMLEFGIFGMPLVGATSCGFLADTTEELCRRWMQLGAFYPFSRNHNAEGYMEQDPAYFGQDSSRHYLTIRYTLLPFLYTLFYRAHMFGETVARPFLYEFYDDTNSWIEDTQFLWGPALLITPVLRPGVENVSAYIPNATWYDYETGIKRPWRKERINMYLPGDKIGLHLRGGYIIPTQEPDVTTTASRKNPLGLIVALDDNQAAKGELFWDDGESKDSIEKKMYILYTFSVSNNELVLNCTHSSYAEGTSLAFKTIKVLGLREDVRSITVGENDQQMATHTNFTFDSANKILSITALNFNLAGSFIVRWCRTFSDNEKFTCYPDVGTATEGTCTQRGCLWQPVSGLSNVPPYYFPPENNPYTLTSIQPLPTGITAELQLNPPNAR
Sucrase-isomaltase, intestinal, sequence (P23739 1014-1841 limits assumed): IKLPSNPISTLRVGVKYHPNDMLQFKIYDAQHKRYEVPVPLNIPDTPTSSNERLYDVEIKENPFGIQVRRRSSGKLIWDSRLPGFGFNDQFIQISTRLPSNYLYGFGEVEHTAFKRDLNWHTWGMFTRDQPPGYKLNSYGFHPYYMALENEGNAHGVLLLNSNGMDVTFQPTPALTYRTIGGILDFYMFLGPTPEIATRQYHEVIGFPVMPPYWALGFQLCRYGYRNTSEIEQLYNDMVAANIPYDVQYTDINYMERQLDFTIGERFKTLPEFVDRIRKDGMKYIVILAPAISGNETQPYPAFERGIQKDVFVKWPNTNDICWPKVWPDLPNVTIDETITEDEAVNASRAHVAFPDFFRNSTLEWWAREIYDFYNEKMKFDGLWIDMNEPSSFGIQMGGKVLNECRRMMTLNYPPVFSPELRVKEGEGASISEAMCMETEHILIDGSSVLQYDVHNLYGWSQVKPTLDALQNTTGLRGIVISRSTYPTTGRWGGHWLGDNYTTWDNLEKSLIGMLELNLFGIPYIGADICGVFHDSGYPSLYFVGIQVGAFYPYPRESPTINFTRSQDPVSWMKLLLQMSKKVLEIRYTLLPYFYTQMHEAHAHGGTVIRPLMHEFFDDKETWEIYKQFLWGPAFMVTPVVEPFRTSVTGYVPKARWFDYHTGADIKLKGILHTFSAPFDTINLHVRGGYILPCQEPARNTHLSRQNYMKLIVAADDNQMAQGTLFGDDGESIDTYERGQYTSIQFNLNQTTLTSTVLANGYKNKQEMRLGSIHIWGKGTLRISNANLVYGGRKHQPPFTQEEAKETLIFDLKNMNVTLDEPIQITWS

Broadly, the inhibition is the share of the control response that was lost under treatment. In general, IC50 refers to the point on the concentration scale where inhibition reaches its midpoint. Turning to `O[C@H]1[C@H](CCCc2ccccc2)NC[C@@H]1O`, the inhibition was 30% with Saccharomyces cerevisiae; 42.9% in the experiment with Oryza sativa; 48.8% with Prunus dulcis; 35% in the experiment filed under Bos taurus [2]; 0% in experiment [4]; 11.5% in experiment [6]. For the same compound, the inhibition amounted to 5.2% with Helix pomatia; 0% in [7]; 0% in the experiment listed under Sus scrofa; 0% with Aspergillus niger; 42.7% in the experiment with Escherichia coli; 0.3% in the experiment filed under Bos taurus [9]. In addition, the inhibition in experiment [10] was found to be 27.8%. Also, the 50% inhibitory concentration (IC50) in experiment [1] was 178 µM; in experiment [3], 9.5 µM; in [5], 665 µM; in experiment [8] it was 131 µM.
